Molecules are shown by their SMILES. Where two headings read alike, the source gives them in different places. Bounds are passed on as bounds.

By IC50 is commonly meant the point on the concentration scale where inhibition reaches its midpoint.

The test system of one test is SKOV3. The test is described as follows: SKOV3 growth. Conditions: Homo sapiens, SK-OV-3, SKOV3 cells. The test is classed as cell-based.
For the next test, the target named is PDGFR (Homo sapiens, UniProt P09619). The test is described as follows: Biochemical PDGFR assay (ELISA). More on the design: expressed in transfected cells; host or cells: NIH 3T3. The following applies: read-out: PDGFr biochem IC50. The protocol:
This assay measures the in vitro kinase activity of PDGFR using ELISA.
6. PDGFR-β expressing NlH 3T3 cell lysate.
1. Coat Corning 96 well ELISA plates with 0.5 μg 28D4C10 in 100 μL PBS per well, store overnight at 4° C.
5. Dilute lysate in HNTG (10 μg lysate/100 μL HNTG)
(§1) 6. Add 100 μL of diluted lysate to each well. Shake at room temperature for 60 min.
8. Add 80 μL working kinase buffer mix to ELISA plate containing captured PDGFR.
9. Dilute test compound 1:10 in TBS in 96-well polypropylene plates (i.e., 10 μL compound+90 μL TBS).
10. Add 10 μL diluted test compound to ELISA plate.
11. Incubate for 30 minutes while shaking at room temperature.
12. Add 10 μL ATP directly to all wells except negative control well (final well volume should be approximately 100 μL with 20 μM ATP in each well.) Incubate 30 minutes while shaking.
13. After 30 minutes, stop reaction by adding 10 μL of 200 mM EDTA (pH 8.0) to each well.
(§2) 15. Add 100 μL anti-phosphotyrosine (1:3000 dilution in TBST) per well. Incubate 30-45 min. at room temperature, with shaking.
(§3) 17. Add 100 μL Biosource Goat anti-rabbit IgG peroxidase conjugate (1:2000 dilution in TBST) to each well. Incubate 30 min. at room temperature, with shaking.
(§4) 19. Add 100 μL of ABTS/H2O2 solution to each well.
22. Read assay on Dynatech MR7000 ELISA reader: test filter: 410 nM, reference filter: 630 nM.
A general note: In an ELISA, binding on a coated surface is turned into a signal by an enzyme label.

For test [1], the target named is T1, Her2 (Homo sapiens, UniProt P04626).
T1 construct: fused on or other part: P00533 (Epidermal growth factor receptor)
T1 sequence (P04626 676-1255 limits assumed): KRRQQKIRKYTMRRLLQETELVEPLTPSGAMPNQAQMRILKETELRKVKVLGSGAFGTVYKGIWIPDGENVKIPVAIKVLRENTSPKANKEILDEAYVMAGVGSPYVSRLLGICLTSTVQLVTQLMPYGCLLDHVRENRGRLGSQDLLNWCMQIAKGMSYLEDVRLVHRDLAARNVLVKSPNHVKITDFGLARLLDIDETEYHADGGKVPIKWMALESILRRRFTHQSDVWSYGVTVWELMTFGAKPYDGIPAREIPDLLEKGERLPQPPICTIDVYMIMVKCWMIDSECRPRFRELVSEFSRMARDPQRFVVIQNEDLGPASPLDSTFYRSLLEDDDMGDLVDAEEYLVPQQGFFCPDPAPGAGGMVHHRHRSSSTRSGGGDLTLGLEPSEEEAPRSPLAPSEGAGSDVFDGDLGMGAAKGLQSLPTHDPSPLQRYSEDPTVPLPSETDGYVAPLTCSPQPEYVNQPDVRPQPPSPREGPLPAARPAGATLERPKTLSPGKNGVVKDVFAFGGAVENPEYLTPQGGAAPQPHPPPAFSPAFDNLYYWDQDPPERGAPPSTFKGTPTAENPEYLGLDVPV
The test is described as follows: HER-2 ELISA: EGF receptor-HER2 chimeric receptor assay in whole cells (HER2 kinase). The test is classed as cell-based. Conditions: NIH3T3 cells with EGFR/HER2 chimeric receptor, phosphotyrosine ELISA. The protocol: Assay 1: EGF Receptor-HER2 Chimeric Receptor Assay In Whole Cells.
HER2 kinase activity in whole EGFR-NIH3T3 cells was measured as described below:
1. An NIH3T3 cell line overexpressing a chimeric receptor containing the EGFR extracellular domain and intracellular HER2 kinase domain can be used for this assay.
3. Resuspend cells in seeding medium (DMEM, 0.5% bovine serum), and count the cells using trypan blue. Viability above 90% is acceptable. Seed cells in DMEM medium (0.5% bovine serum) at a density of 10,000 cells per well, 100 μL per well, in a 96 well microtiter plate. Incubate seeded cells in 5% CO2 at 37° C. for about 40 hours.
1. Check seeded cells for contamination using an inverted microscope. Dilute drug stock (10 mg/mL in DMSO) 1:10 in DMEM medium, then transfer 5 μL to a TBST well for a final drug dilution of 1:200 and a final DMSO concentration of 1%. Control wells receive DMSO alone. Incubate in 5% CO2 at 37° C. for two hours.
2. Prepare EGF ligand: dilute stock EGF in DMEM so that upon transfer of 10 μL dilute EGF (1:12 dilution), 100 nM final concentration is attained.
4. After 120 minutes incubation with drug, add prepared […] ligand to cells, 10 μL per well, to a final concentration of 100 nM. Control wells receive DMEM alone. Incubate, shaking, at room temperature, for 5 minutes.
5. Remove drug, EGF, and DMEM. Wash cells twice with PBS. Transfer HNTG* to cells, 100 μL per well. Place on ice for 5 minutes. Meanwhile, remove blocking buffer from other ELISA plate and wash with TBST as described above.
6. With a pipette tip securely fitted to a micropipettor, scrape cells from plate and homogenize cell material by repeatedly aspirating and dispensing the HNTG* lysis buffer. Transfer lysate to a coated, blocked, and washed ELISA plate. Incubate shaking at room temperature for one hour.
7. Remove lysate and wash 4 times with TBST. Transfer freshly diluted anti-Ptyr antibody to ELISA plate at 100 μL per well. Incubate shaking at room temperature for 30 minutes in the presence of the anti-Ptyr antiserum (1:3000 dilution in TBST).
8. Remove the anti-Ptyr antibody and wash 4 times with TBST. Transfer the freshly diluted TAGO anti-rabbit IgG antibody to the ELISA plate at 100 μL per well. Incubate shaking at room temperature for 30 minutes (anti-rabbit IgG antibody: 1:3000 dilution in TBST).
9. Remove TAGO detection antibody and wash 4 times with TBST. Transfer freshly prepared ABTS/H2O2 solution to ELISA plate, 100 μL per well. Incubate shaking at room temperature for 20 minutes. (ABTS/H2O2 solution: 1.0 μL 30% H2O2 in 10 mL ABTS stock).
10. Stop reaction by adding 50 μL 5N H2SO4 (optional), and determine O.D. at 410 nm.
11. The maximal phosphotyrosine signal is determined by subtracting the value of the negative controls from the positive controls. The percent inhibition of phosphotyrosine content for extract-containing wells is then calculated, after subtraction of the negative controls.

A further test has as its target EGFR (Homo sapiens, UniProt P00533). The experiment in a line: Biochemical EGFR assay (ELISA). Also on record: A431 cell lysate; endogenous in cells; host or cells: A431. The following applies: read-out: EGFr biochem IC50. The protocol:
This assay measures the in vitro kinase activity of EGFR using ELISA.
1. Coat Coming 96 well ELISA plates with 0.5 μg SUMOl in 100 μL PBS per well, store overnight at 4° C.
5. Dilute lysate in PBS (7 μg lysate/100 μL PBS).
as §1
8. Add 120 μL TBS to ELISA plate containing captured EGFR.
9. Dilute test compound 1:10 in TBS in 96-well polypropylene plates (ie. 10 μL compound+90 μL TBS).
10. Add 13.5 μL diluted test compound to ELISA plate.
13. After 5 minutes, stop reaction by adding 16.5 μL of 200 mM EDTA (pH 8.0) to each well, shaking continuously. After the EDTA has been added, shake for 1 mm.
as §2, §3, §4
22. Read assay on Dynatech MR7000 ELISA reader. Test Filter: 410 nM Reference Filter: 630 Nm.

The next test deals with A431. The experiment in a line: A431 growth. The following applies: Homo sapiens, A-431, A431 cells. The test is classed as cell-based.
For test [2], the target named is T1, Her2. The test is described as follows: EGF-induced Her2-driven BrdU incorporation. The test is classed as cell-based. The following applies: Table 7; 3T3 cells with EGF-R/Her2 chimeric receptor, EGF 2 nM; read-out: BrdU DNA syn. HER2 IC50. Here is the method: The cellular/biologic assays described herein measure the amount of DNA made in response to activation of a test kinase, which is a general measure of a proliferative response. The general procedure for this assay is as follows: a compound is introduced to cells expressing the test kinase, either naturally or recombinantly, for some period of time after which, if the test kinase is a receptor, a ligand known to activate the receptor is added. After incubation at least overnight, a DNA labeling reagent such as Bromodeoxy-uridine (BrdU) or 3H-thymidine is added. The amount of labeled DNA is detected with either an anti-BrdU antibody or by measuring radioactivity and is compared to control cells not contacted with a test compound.
EGF-Induced Her2-Driven BrdU Incorporation
(8) 3T3 cell line engineered to express a chimeric receptor having the extra-cellular domain of EGF-R and the intra-cellular domain of Her2.
(1) Cells are seeded at 8000 cells/well in DMEM, 10% CS, 2 mM Gln in a 96-well plate. Cells are incubated overnight at 37° C. in 5% CO2.
(2) After 24 hours, the cells are washed with PBS, and then are serum starved in serum free medium (0% CS DMEM with 0.1% BSA) for 24 hours.
(3) On day 3, ligand (EGF=2 nM, prepared in DMEM with 0.1% BSA) and test compounds are added to the cells simultaneously. The negative control wells receive serum free DMEM with 0.1% BSA only; the positive control cells receive the ligand (EGF) but no test compound. Test compounds are prepared in serum free DMEM with ligand in a 96 well plate, and serially diluted for 7 test concentrations.
(4) After 20 hours of ligand activation, diluted BrdU labeling reagent (1:100 in DMEM, 0.1% BSA) is added and the cells are incubated with BrdU (final concentration=[…]) for 1.5 hours.
(10) The absorbance of the samples are measured at 410 nm (in “dual wavelength” mode with a filter reading at 490 nm, as a reference wavelength) on a Dynatech ELISA plate reader.
(Uptake of a labelled nucleoside into DNA is a usual measure of proliferation.)

[3] abbreviates: Table 5, in vitro kinase activity.
Setting [4] is: Table 7, in vitro kinase activity.

Chain of PDGFR (P09619 33-1106): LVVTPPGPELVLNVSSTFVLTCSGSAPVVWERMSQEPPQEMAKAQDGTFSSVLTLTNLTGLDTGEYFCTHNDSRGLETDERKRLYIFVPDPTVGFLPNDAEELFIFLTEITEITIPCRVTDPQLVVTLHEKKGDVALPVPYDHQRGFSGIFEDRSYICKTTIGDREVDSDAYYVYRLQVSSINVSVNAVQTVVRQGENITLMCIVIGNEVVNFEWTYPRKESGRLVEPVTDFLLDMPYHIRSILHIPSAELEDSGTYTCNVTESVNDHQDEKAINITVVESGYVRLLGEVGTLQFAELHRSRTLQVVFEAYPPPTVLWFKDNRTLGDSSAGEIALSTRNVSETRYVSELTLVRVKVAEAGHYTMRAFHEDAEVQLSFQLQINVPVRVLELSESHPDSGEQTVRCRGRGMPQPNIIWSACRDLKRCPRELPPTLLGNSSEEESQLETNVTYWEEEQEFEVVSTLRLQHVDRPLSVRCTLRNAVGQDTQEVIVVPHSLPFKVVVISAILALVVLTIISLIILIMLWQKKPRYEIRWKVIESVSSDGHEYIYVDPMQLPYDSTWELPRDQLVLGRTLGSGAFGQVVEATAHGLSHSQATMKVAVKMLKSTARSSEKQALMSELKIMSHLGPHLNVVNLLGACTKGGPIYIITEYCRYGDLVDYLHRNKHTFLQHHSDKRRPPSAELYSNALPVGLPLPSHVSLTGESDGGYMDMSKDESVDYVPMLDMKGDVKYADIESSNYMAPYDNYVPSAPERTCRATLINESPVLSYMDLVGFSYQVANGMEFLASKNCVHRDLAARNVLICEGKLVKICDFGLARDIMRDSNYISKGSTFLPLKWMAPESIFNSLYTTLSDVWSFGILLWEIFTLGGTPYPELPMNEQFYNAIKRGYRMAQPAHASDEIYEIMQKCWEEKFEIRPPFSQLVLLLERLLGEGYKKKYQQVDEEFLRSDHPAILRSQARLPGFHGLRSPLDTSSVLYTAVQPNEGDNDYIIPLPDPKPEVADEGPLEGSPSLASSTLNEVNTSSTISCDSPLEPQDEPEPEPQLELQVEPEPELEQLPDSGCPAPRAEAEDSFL
Chain of EGFR (P00533 25-1210): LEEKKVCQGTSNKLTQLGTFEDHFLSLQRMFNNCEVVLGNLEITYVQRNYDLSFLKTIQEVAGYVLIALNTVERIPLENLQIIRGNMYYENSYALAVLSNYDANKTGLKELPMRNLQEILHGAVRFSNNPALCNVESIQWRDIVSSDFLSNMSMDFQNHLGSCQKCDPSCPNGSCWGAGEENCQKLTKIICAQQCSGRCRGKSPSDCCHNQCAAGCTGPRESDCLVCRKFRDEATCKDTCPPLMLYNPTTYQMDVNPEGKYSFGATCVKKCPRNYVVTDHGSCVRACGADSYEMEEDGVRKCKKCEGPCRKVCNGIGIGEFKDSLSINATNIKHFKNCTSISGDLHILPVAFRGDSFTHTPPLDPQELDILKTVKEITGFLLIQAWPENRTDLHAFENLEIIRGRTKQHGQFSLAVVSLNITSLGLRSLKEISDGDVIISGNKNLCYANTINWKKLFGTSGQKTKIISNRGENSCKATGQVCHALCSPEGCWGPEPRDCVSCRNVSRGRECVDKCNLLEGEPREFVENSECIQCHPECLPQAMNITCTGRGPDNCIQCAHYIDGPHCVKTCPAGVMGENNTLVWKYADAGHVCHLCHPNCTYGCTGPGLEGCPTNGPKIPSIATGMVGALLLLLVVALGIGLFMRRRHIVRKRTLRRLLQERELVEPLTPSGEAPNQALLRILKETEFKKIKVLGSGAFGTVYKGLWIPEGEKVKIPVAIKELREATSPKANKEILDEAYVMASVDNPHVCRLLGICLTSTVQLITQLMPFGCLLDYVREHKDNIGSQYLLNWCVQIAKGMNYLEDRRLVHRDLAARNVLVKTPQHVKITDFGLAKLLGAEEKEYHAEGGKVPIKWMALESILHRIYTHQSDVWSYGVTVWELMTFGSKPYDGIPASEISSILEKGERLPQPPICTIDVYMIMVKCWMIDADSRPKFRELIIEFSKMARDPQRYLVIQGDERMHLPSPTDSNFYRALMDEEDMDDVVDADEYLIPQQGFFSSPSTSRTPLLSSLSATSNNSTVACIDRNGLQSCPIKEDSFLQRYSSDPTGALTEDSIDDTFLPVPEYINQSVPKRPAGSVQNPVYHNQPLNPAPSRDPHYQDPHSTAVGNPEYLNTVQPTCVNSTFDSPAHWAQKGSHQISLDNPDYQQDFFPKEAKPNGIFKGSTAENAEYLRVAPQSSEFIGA

As to `COc1cc(C)c(CC2C(=O)Nc3ccccc32)cc1C(C)C` (stereo not shown) [AAI-9, 3-(5-Isopropyl-4-methoxy-2-methylbenzyl)-1,3-dihydroindol-2-one], the concentration for half-maximal inhibition (IC50) is 5.2 µM in the test on SKOV3 (Table 5); over 100 µM on PDGFR (setting [3]); over 100 µM on Her2 [1] (Table 5); over 100 µM at EGFR (setting [3]); 5.25 µM with A431 (Table 5).

For `O=C1Nc2cccc(CCO)c2C1Cc1ccccc1` (stereo not shown) [AAI-12, 3-Benzyl-4-(2-hydroxyethyl)-1,3-dihydroindol-2-one], the IC50 in the test with SKOV3 (Table 5) is over 50 µM; on PDGFR (setting [3]) it was over 100 µM; against Her2 [1] (Table 5), over 100 µM; on EGFR (setting [3]), over 100 µM; in the test on A431 (Table 5), over 50 µM.

Turning to `O=C1Nc2cccc(CCO)c2/C1=C/c1ccc2[nH]ccc2c1` [IN-007, 4-(2-Hydroxy-ethyl)-3-(1H-indol-5-ylmethylene)-1,3-dihydro-indol-2-one], the half-maximal inhibitory concentration (IC50) with SKOV3 (Table 7) is 9.7 µM; on PDGFR (setting [4]), over 100 µM; against Her2 [1] (Table 7), 22.7 µM; at EGFR (setting [4]), over 100 µM; in the test on A431 (Table 7), 4.2 µM.

Turning to `Cc1[nH]c(/C=C2\C(=O)Nc3cccc(CCO)c32)c(C)c1CCCN(C)C` [IN-009, 3-[4-(3-Dimethylamino-propyl)-3,5-dimethyl-1H-pyrrol-2-ylmethylene]-4-(2-hydroxy-ethyl)-1,3-dihydro-indol-2-one], the IC50 is 25.2 µM with SKOV3 (Table 7); over 100 µM against Her2 [1] (Table 7); over 100 µM on EGFR (setting [4]); 13.6 µM with A431 (Table 7); 4.2 µM on Her2 [2].

Regarding `O=C1Cc2c(CCOC(=O)NC3CCCCC3)cccc2N1` [IN-013, Cyclohexyl-carbamic acid 2-(2-oxo-2,3-dihydro-1H-indol-4-yl)-ethyl ester], the IC50 is over 50 µM with SKOV3 (Table 7), over 100 µM on Her2 [1] (Table 7), over 100 µM on EGFR (setting [4]) and over 50 µM with A431 (Table 7).

Consider `O=C1Cc2c(CCOC(=O)NS(=O)(=O)c3ccccc3)cccc2N1` [IN-014, Benzene sulfonyl-carbamic acid 2-(2-oxo-2,3-dihydro-1H-indol-4-yl)-ethyl ester], for which the IC50 in the test on SKOV3 (Table 7) was over 50 µM; at Her2 [1] (Table 7) it was over 100 µM; at EGFR (setting [4]), over 100 µM; in the test with A431 (Table 7), over 50 µM.

Turning to `O=C1Cc2c(CCOC(=O)Nc3ccccc3-c3ccccc3)cccc2N1` [IN-015, Biphenyl-2-yl-carbamic acid 2-(2-oxo-2,3-dihydro-1H-indol-4-yl)-ethyl ester], the concentration for half-maximal inhibition (IC50) with SKOV3 (Table 7) is 20.5 µM; at Her2 [1] (Table 7), over 100 µM; at EGFR (setting [4]), over 100 µM; with A431 (Table 7), 21 µM.

With `CCNC(=O)OCCc1cccc2c1CC(=O)N2` [IN-016, Ethyl-carbamic acid 2-(2-oxo-2,3-dihydro-1H-indol-4-yl)-ethyl ester], the IC50 with SKOV3 (Table 7) is over 50 µM; against Her2 [1] (Table 7) it was over 100 µM; on EGFR (setting [4]), over 100 µM; with A431 (Table 7), over 50 µM.

`CC(C)c1ccc(OCCc2cccc3c2CC(=O)N3)cc1` [IN-020, 4-[2-(4-Isopropyl-phenoxy)-ethyl]-1,3-dihydro-indol-2-one]: the IC50 in the test with SKOV3 (Table 7) is over 50 µM; against Her2 [1] (Table 7), over 100 µM; on EGFR (setting [4]), over 100 µM; in the test on A431 (Table 7) it was 15.2 µM.
